Results on 36 molecules are retold here after US20120190666A1, “Heteroaryl Compounds as PIKK Inhibitors” (Amgen Inc., priority 2009, published 2012).

In the assay the test system is phosphorylation of Akt at Serine 473 in U87 MG cells. The experiment in a line: pAkt AlphaScreen (U87 cell). It is filed as cell-based. The note with it: pAkt at Serine 473, U87 MG cells, two hours with compound. The essentials: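 U87 MG cells (5K per well, plated overnight) treated 2 h at 37 °C with compound, 25 μM to 11.9 pM final in 0.5% DMSO. Lysates assayed for Akt Ser473 phosphorylation with SureFire AlphaScreen, incubated overnight at room temperature; IC50 from percent of control.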

As to `Cc1nc(N)cc(-c2c(Nc3ccc(NC(=O)Nc4ccncc4)cc3)nc3ccccn23)n1` [Cpd 57, 1-(4-((3-(6-amino-2-methyl-4-pyrimidinyl)imidazo[1,2-a]pyridin-2-yl)amino)phenyl)-3-(4-pyridinyl)urea], under “Homo sapiens, U-87 MG, 2 h”, the half-inhibitory concentration (IC50) (in general, the midpoint of a concentration-inhibition curve) was found to be 70 nM.
On the same count and under the same terms, for `Cc1nc(NC(=O)CC(F)(F)F)cc(-c2c(Nc3ccn(C)n3)nc3cccnn23)n1` [Cpd 134, 3,3,3-trifluoro-N-(2-methyl-6-(2-((1-methyl-1H-pyrazol-3-yl)amino)imidazo[1,2-b]pyridazin-3-yl)-4-pyrimidinyl)propanamide] the value was 210 nM.
As for `Cc1nc(N)nc(-c2c(Nc3ccn[nH]3)nc3ccc(CCC(O)CO)cn23)n1` (stereo not drawn) [Cpd 291, 4-(3-(4-amino-6-methyl-1,3,5-triazin-2-yl)-2-(1H-pyrazol-5-ylamino)-midazo[1,2-a]pyridin-6-yl)-1,2-butanediol], the IC50 is 170 nM.
As to `Cc1nc(N)nc(-c2c(Nc3cc[nH]n3)nc3ccccn23)n1` [Cpd 1, 3-(4-amino-6-methyl-1,3,5-triazin-2-yl)-N-(1H-pyrazol-3-yl)imidazo[1,2-a]pyridin-2-amine], the IC50 (Homo sapiens, U-87 MG, 2 h) is 20 nM.
Consider `Cc1nc(N)nc(-c2c(Nc3ccn(C(=O)Nc4ccccc4)n3)nc3ccccn23)n1` [Cpd 204, 3-((3-(4-amino-6-methyl-1,3,5-triazin-2-yl)imidazo[1,2-a]pyridin-2-yl)amino)-N-phenyl-1H-pyrazole-1-carboxamide], for which the 50% inhibitory concentration (IC50) (Homo sapiens, U-87 MG, 2 h) stood at 90 nM.
For `COCCOc1ccc2nc(Nc3cc[nH]n3)c(-c3cc(N)nc(C)n3)n2n1` [Cpd 69, 3-(6-amino-2-methyl-4-pyrimidinyl)-6-(2-methoxyethoxy)-N-1H-pyrazol-3-ylimidazo[1,2-b]pyridazin-2-amine], under “Homo sapiens, U-87 MG, 2 h”, the IC50 was 1 nM.
Take `Cc1nc(NC(=O)CN(C)C)cc(-c2c(Nc3ccn(C)n3)nc3cccnn23)n1` [Cpd 92]: the IC50 (Homo sapiens, U-87 MG, 2 h) amounted to 180 nM.
`CSc1cccc(-c2ccc3nc(Nc4cc[nH]n4)c(-c4nc(C)nc(N)n4)n3c2)c1` [Cpd 109, 3-(4-amino-6-methyl-1,3,5-triazin-2-yl)-6-(3-(methylsulfanyl)phenyl)-N-1H-pyrazol-3-ylimidazo[1,2-a]pyridin-2-amine]: the IC50 (Homo sapiens, U-87 MG, 2 h) was 220 nM.
Regarding `Cc1nc(N)nc(-c2c(Nc3cc[nH]n3)nc3ccc(Nc4ccncc4)cn23)n1` [Cpd 166], under “Homo sapiens, U-87 MG, 2 h”, the IC50 was found to be 450 nM.
In the case of `Cc1nc(Nc2cccnn2)cc(-c2c(Nc3ccn(C)n3)nc3cccnn23)n1` [Cpd 34, N-(1-methyl-1H-pyrazol-3-yl)-3-(2-methyl-6-(3-pyridazinylamino)-4-pyrimidinyl)imidazo[1,2-b]pyridazin-2-amine], for the setting “Homo sapiens, U-87 MG, 2 h”, the half-inhibitory concentration (IC50) worked out at 60 nM.
With `Cc1nc(N)cc(-n2nc(C(=O)N3CCOCC3)cc2Nc2ccn[nH]2)n1` [Cpd 13, (5-(1H-pyrazol-5-ylamino)-1-(6-amino-2-methylpyrimidin-4-yl)-1H-pyrazol-3-yl)(morpholino)methanone], the IC50 (Homo sapiens, U-87 MG, 2 h) amounted to 280 nM.
Regarding `Cc1nc(NC(=O)CC#N)cc(-c2c(Nc3ccn(C)n3)nc3ccccn23)n1` [Cpd 126, 2-cyano-N-(2-methyl-6-(2-((1-methyl-1H-pyrazol-3-yl)amino)imidazo[1,2-a]pyridin-3-yl)-4-pyrimidinyl)acetamide], for the setting “Homo sapiens, U-87 MG, 2 h”, the IC50 was found to be 220 nM.
For `Cc1nc(N)cc(-n2nc(C(=O)Nc3cccnc3)cc2Nc2ccn[nH]2)n1` [Cpd 11, 5-(1H-pyrazol-5-ylamino)-1-(6-amino-2-methylpyrimidin-4-yl)-N-(pyridin-3-yl)-1H-pyrazole-3-carboxamide], under “Homo sapiens, U-87 MG, 2 h”, the 50% inhibitory concentration (IC50) was found to be 600 nM.
Regarding `Cc1nc(N)nc(-c2c(Nc3cc[nH]n3)nc3ccc(-c4ccc(S(C)(=O)=O)cc4)cn23)n1` [Cpd 344, 3-(4-amino-6-methyl-1,3,5-triazin-2-yl)-6-(4-(methylsulfonyl)phenyl)-N-1H-pyrazol-3-ylimidazo[1,2-a]pyridin-2-amine], the half-maximal inhibitory concentration (IC50) (Homo sapiens, U-87 MG, 2 h) came out at 20 nM.
`Cc1nc(N)nc(-c2c(Nc3cc[nH]n3)nc3ccc(-c4ccc(F)cc4C)cn23)n1` [Cpd 107, 3-(4-amino-6-methyl-1,3,5-triazin-2-yl)-6-(4-fluoro-2-methylphenyl)-N-1H-pyrazol-3-ylimidazo[1,2-a]pyridin-2-amine]: the half-maximal inhibitory concentration (IC50) (Homo sapiens, U-87 MG, 2 h) came out at 130 nM.
As to `CCNC(=O)Nc1ccc(Nc2nc3ccccn3c2-c2cc(N)nc(C)n2)cc1` [Cpd 40, 1-(4-((3-(6-amino-2-methyl-4-pyrimidinyl)imidazo[1,2-a]pyridin-2-yl)amino)phenyl)-3-ethylurea], the IC50 (Homo sapiens, U-87 MG, 2 h) worked out at 60 nM.
As to `CC(=O)n1ccc(Nc2nc3cccnn3c2-c2cc(N)nc(C)n2)n1` [Cpd 67, N-(1-acetyl-1H-pyrazol-3-yl)-3-(6-amino-2-methyl-4-pyrimidinyl)imidazo[1,2-b]pyridazin-2-amine], the half-inhibitory concentration (IC50) (Homo sapiens, U-87 MG, 2 h) is 10 nM.
The same measure, in the same setting: the same measure for `Cc1nc(N)cc(-c2c(Nc3ccnn3C(=O)N3CCC3)nc3cccnn23)n1` [Cpd 257, 3-(6-amino-2-methyl-4-pyrimidinyl)-N-(1-(1-azetidinylcarbonyl)-1H-pyrazol-5-yl)imidazo[1,2-b]pyridazin-2-amine]: 1050 nM; for `Cc1nc(NC(=O)N(C)C)cc(-c2c(Nc3cc[nH]n3)nc3cccnn23)n1` [Cpd 75, 1,1-dimethyl-3-(2-methyl-6-(2-(1H-pyrazol-3-ylamino)imidazo[1,2-b]pyridazin-3-yl)-4-pyrimidinyl)urea]: 790 nM.
As to `CNS(=O)(=O)c1ccc(-c2ccc3nc(Nc4cc[nH]n4)c(-c4nc(C)nc(N)n4)n3c2)cc1` [Cpd 351, 4-(3-(4-amino-6-methyl-1,3,5-triazin-2-yl)-2-(1H-pyrazol-3-ylamino)imidazo[1,2-a]pyridin-6-yl)-N-methylbenzenesulfonamide], the IC50 (Homo sapiens, U-87 MG, 2 h) is 30 nM.
For the molecule `Cc1nc(Nc2ccc(N3CCN(C)CC3)nn2)cc(-c2c(Nc3cc[nH]n3)nc3cccnn23)n1` [Cpd 35, 3-(2-methyl-6-((6-(4-methyl-1-piperazinyl)-3-pyridazinyl)amino)-4-pyrimidinyl)-N-1H-pyrazol-3-ylimidazo[1,2-b]pyridazin-2-amine], the IC50 (Homo sapiens, U-87 MG, 2 h) was 70 nM.
`Cc1nc(NC(=O)C2CC2)cc(-c2c(Nc3cc[nH]n3)nc3cccnn23)n1` [Cpd 120]: the IC50 (Homo sapiens, U-87 MG, 2 h) was 110 nM.
Turning to `Cc1nc(N)cc(-c2c(Nc3ccn(C(=O)Nc4ccccc4C(F)(F)F)n3)nc3cccnn23)n1` [Cpd 239, 3-((3-(6-amino-2-methyl-4-pyrimidinyl)imidazo[1,2-b]pyridazin-2-yl)amino)-N-(2-(trifluoromethyl)phenyl)-1H-pyrazole-1-carboxamide], where the note is “Homo sapiens, U-87 MG, 2 h”, the IC50 was 10 nM.
For the molecule `Cc1nc(N)cc(-c2c(Nc3cc[nH]n3)nc3ccc(OCCN4CCCC4)nn23)n1` [Cpd 73], the IC50 (Homo sapiens, U-87 MG, 2 h) was 70 nM.
On the same count and under the same terms, for `Cc1nc(NCC#N)cc(-c2c(Nc3cc[nH]n3)nc3cccnn23)n1` [Cpd 90] the value was 20 nM; for `Cc1nc(N)cc(-c2c(Nc3ccn(C(=O)Nc4cc(F)cc(F)c4)n3)nc3cccnn23)n1` [Cpd 242, 3-((3-(6-amino-2-methyl-4-pyrimidinyl)imidazo[1,2-b]pyridazin-2-yl)amino)-N-(3,5-difluorophenyl)-1H-pyrazole-1-carboxamide], 80 nM; for `COc1ccc(-c2ccc3nc(Nc4ccn[nH]4)c(-c4nc(C)nc(N)n4)n3c2)cc1CO` [Cpd 286], 10 nM.
Take `COc1ccc(Nc2cc(-c3c(Nc4cc[nH]n4)nc4cccnn34)nc(C)n2)cc1` [Cpd 33]: the half-maximal inhibitory concentration (IC50) (Homo sapiens, U-87 MG, 2 h) was 290 nM.
Still for that read-out and setting: for `Cc1nc(Nc2ccc(N3CCOCC3)nn2)cc(-c2c(Nc3cc[nH]n3)nc3ccccn23)n1` [Cpd 49, 3-(2-methyl-6-((6-(4-morpholinyl)-3-pyridazinyl)amino)-4-pyrimidinyl)-N-1H-pyrazol-3-ylimidazo[1,2-a]pyridin-2-amine] the value was 60 nM.
`Cc1nc(N)cc(-c2c(Nc3ccn(C)n3)nc3ccc(-c4cccc(S(C)(=O)=O)c4)cn23)n1` [Cpd 65, 3-(6-amino-2-methyl-4-pyrimidinyl)-N-(1-methyl-1H-pyrazol-3-yl)-6-(3-(methylsulfonyl)phenyl)imidazo[1,2-a]pyridin-2-amine]: under “Homo sapiens, U-87 MG, 2 h”, the half-inhibitory concentration (IC50) came to 380 nM.
`Cc1nc(N)cc(-c2c(Nc3cc[nH]n3)nc3cccnn23)n1` [Cpd 7, 3-(6-amino-2-methylpyrimidin-4-yl)-N-(1H-pyrazol-3-yl)imidazo[1,2-b]pyridazin-2-amine]: the half-inhibitory concentration (IC50) (Homo sapiens, U-87 MG, 2 h) was 20 nM.
Regarding `Cc1nc(N)nc(-c2c(Nc3ccn(C)n3)nc3ccc(-c4ccc(S(C)(=O)=O)cc4)cn23)n1` [Cpd 354], the IC50 (Homo sapiens, U-87 MG, 2 h) amounted to 100 nM.
On the same count and under the same terms, the same measure for `CNc1nc(C)nc(-c2c(Nc3cc[nH]n3)nc3ccccn23)n1` [Cpd 3, 3-(4-methyl-6-(methylamino)-1,3,5-triazin-2-yl)-N-(1H-pyrazol-3-yl)imidazo[1,2-a]pyridin-2-amine]: 50 nM; for `CNC(=O)c1ccc(-c2ccc3nc(Nc4cc[nH]n4)c(-c4nc(C)nc(N)n4)n3c2)cc1F` [Cpd 99, 4-(3-(4-amino-6-methyl-1,3,5-triazin-2-yl)-2-(1H-pyrazol-3-ylamino)imidazo[1,2-a]pyridin-6-yl)-2-fluoro-N-methylbenzamide]: 10 nM.
For the molecule `Cc1nc(N)cc(-n2nc(C(=O)NC3CC3)cc2Nc2cc[nH]n2)n1` [Cpd 16, 5-(1H-pyrazol-5-ylamino)-1-(6-amino-2-methylpyrimidin-4-yl)-N-cyclopropyl-1H-pyrazole-3-carboxamide], the half-maximal inhibitory concentration (IC50) (Homo sapiens, U-87 MG, 2 h) stood at 350 nM.
With `Cc1nc(N)nc(-c2c(Nc3cnn(C(=O)Oc4ccccc4)c3)nc3ccccn23)n1` [Cpd 209, phenyl 4-((3-(4-amino-6-methyl-1,3,5-triazin-2-yl)imidazo[1,2-a]pyridin-2-yl)amino)-1H-pyrazole-1-carboxylate], the half-maximal inhibitory concentration (IC50) (Homo sapiens, U-87 MG, 2 h) was 110 nM.
